According to a melting point compilation (Tetko et al.; mined from patent text by program, amines drawn as free bases though some values may be those of a salt):

Compared with `NS(=O)(=O)c1ccc(-c2oc3c(Cl)ccc(O)c3c(=O)c2-c2ccc(F)cc2)cc1`, `CC(=O)Nc1c(C(=O)c2cccc(S(N)(=O)=O)c2)[nH]c2cc(Cl)ccc12` is lower in melting point: 251 to 252 °C for the first, 250 to 251 °C for the second.

First: COCOc1nn(-c2ccccc2)cc1C=O
Second: COc1ccc2c(c1)c(CO)nn2Cc1ccccc1
The melting point of the first is higher: 106 to 107 °C for the first, 97 to 98 °C for the second.

First: CC(=O)SCC(Cc1ccccc1)C(=O)Nc1cccc(C(=O)NCC(=O)OCc2ccccc2)c1 (centres undefined)
Second: CC1OC(=O)C(C)C(NC(=O)OCc2ccccc2)C1C(=O)OCc1ccccc1 (centres undefined)
The melting point of the first is higher: 122 to 123 °C for the first, 110 to 112 °C for the second.

First: CC(O)c1ccc(OCCCN2CCC(c3noc4cc(F)ccc34)CC2)c(O)c1 (centres undefined)
Second: Fc1ccc(Cn2c(NC3CCN(CCCCNc4nc5cnccc5[nH]4)CC3)nc3ccccc32)cc1
The melting point of the first is lower: 142 to 144 °C for the first, 228 °C for the second.

First: CN(c1cccc2cc(-c3ncc(CCc4nn[nH]n4)s3)[nH]c12)S(=O)(=O)c1cccs1
Second: Cc1nc(-c2cn(Cc3ccc(F)cc3)nn2)sc1C(=O)NCc1ccccc1
The melting point of the first is higher: 211 to 212 °C for the first, 114 to 115 °C for the second.

First: CNC(=O)C1(c2ccc([N+](=O)[O-])cc2)C2C=CC(C2)C1C(N)=O (centres undefined)
Second: O=[N+]([O-])c1ccc(C2SCCS2)cc1
The melting point of the first is higher: 164 to 166 °C for the first, 80 to 82 °C for the second.

First: CCCc1c(C(=O)C(C)C)c2ccc(C(N)=O)cc2n1Cc1ccccc1[N+](=O)[O-]
Second: COC(=O)Cc1cccc(Cc2ccccc2C(=O)O)c1
The melting point of the first is higher: 181 to 182 °C for the first, 67 to 70 °C for the second.

Compared with `CC(=O)Oc1c(C)c(C)c2c(c1C)CCC(C)(C(=O)OCCNCc1cc(N3CCCC3)nc(N3CCCC3)n1)O2` (centres undefined), `Cc1c(F)c(N2CCN(C)CC2)c(C)c2c1c(=O)c(C(=O)O)cn2C1CC1` is higher in melting point: 69.5 to 76 °C for the first, 205 to 206 °C for the second.

First: CCCCCCCCCC=CC(=O)C1C(=O)C=C(C)OC1=O (centres undefined)
Second: CCCCCCCCCCCCOC(=O)c1cccc(NC(=O)NS(=O)(=O)c2ccc(C)cc2)c1
The melting point of the first is higher: 112 to 113 °C for the first, 110 to 112 °C for the second.

First: COC(=O)NC(C)(C(=O)NS(=O)(=O)c1ccc(C)cc1)C(C)C (centres undefined)
Second: CC(C)Oc1ccc2nc3ccc(C(=O)O)cn3c(=O)c2c1
The melting point of the first is lower: 120 to 122 °C for the first, 256 to 267 °C for the second.

First: Cc1ccc2c(c1)C(=O)N(CC(=O)N1c3ccccc3N(Cc3ccccc3)C(=O)[C@H]3CCC[C@H]31)C2=O (relative stereo)
Second: O=C1CN=C(c2ccccc2)c2cc(C(=O)c3ccc(Cl)cc3)ccc2N1
The melting point of the first is higher: 237 to 238 °C for the first, 230 °C for the second.

First: CNCc1nnc2n1-c1ccc(Cl)cc1C(c1ccccc1F)=CC2
Second: Cc1ccc2c(c1)[C@H]1Cc3ccccc3[C@H]1N2C (relative stereo)
The melting point of the first is higher: 170 to 171 °C for the first, 54 °C for the second.

First: CC(=O)OC1CC2=CCC3C4CCC(C(C)CO)C4(C)CCC3C2(C)C(O)C1 (centres undefined)
Second: CCOC(=O)C(C#N)=Cc1ccc(OC)c2c1CC(C)(C)O2
The melting point of the first is higher: 121 °C for the first, 112 to 117 °C for the second.

First: O=C(c1nc(-c2ccccc2)nc2ccccc12)N1CCCC1
Second: c1ccc(-n2c(Cc3ccccn3)nc3ccccc32)cc1
The melting point of the first is higher: 153 °C for the first, 106 to 108 °C for the second.

First: CN(C(=O)c1ccc(-n2cc3ccccc3n2)cc1)[C@@H]1CCN(C(=O)OC(C)(C)C)C1
Second: C[C@@H]1CN(C(=O)OC(C)(C)C)C[C@H]2Cc3cc(F)c(C=O)nc3N21
The melting point of the first is lower: 133 to 134 °C for the first, 139 to 140 °C for the second.

First: Cc1cccc(C(=O)c2[nH]c3cc(Cl)ccc3c2CC(=O)O)n1
Second: O=C(O)c1ccc2nc3c(c(=O)n2c1)CCC3=Cc1cccc(O)c1
The melting point of the first is lower: 230 to 231 °C for the first, > 320 °C for the second.

First: CCOCc1cccc2[nH]cc(C(COC)C(C(=O)OCC)[N+](=O)[O-])c12 (centres undefined)
Second: COC(=O)c1cscc1Nc1ccc(F)cc1[N+](=O)[O-]
The melting point of the first is lower: 118 to 120 °C for the first, 164 °C for the second.

First: O=C1c2ccccc2C(=O)N1OCc1c[nH]cn1
Second: COc1ccccc1N1CCN(CCCn2c(=O)[nH]cc(C)c2=O)CC1
The melting point of the first is lower: 163 to 165 °C for the first, 168 to 170 °C for the second.

First: O=C(O)c1ccc(NCCCCc2cccs2)cc1
Second: CCCc1c(OCc2ccc(C(=O)O)cc2)ccc(C(C)=O)c1O
The melting point of the first is lower: 137 to 140 °C for the first, 188 °C for the second.

First: CCc1ccc(CCOc2ccc(NC(=O)N(C)C)cc2)nc1
Second: CCc1cccc(C)c1CNc1cc(C(=O)N(C)C)cn2c(C)nnc12
The melting point of the first is lower: 121 to 122 °C for the first, 201 °C for the second.

First: O=C(O)C1(c2ccc(CN3CCN(c4ccc(F)cc4)CC3)cc2)CC1
Second: CN(C)C1(Cc2ccccc2)CC=C(c2[nH]c3ccccc3c2CCc2ccncc2)CC1 (centres undefined)
The melting point of the first is lower: 74 to 77 °C for the first, 154 to 157 °C for the second.

Compared with `COc1cc2[nH]c(S(=O)Cc3nccc(N4CCOCC4)c3F)nc2cc1C` (centres undefined), `Cc1cc2c(cc1C(F)(F)F)N(C(=O)Nc1cnc(OCc3ccccn3)c(C)c1)CC2` is higher in melting point: 185 to 186 °C for the first, 188 to 189 °C for the second.

First: NNc1ncc(-c2cccc(C(F)(F)F)c2)nn1
Second: O=C(NCCO)c1cccc(-c2cccc3nc(Oc4cccc(C(F)(F)F)c4)sc23)c1
The melting point of the first is higher: 229 to 232 °C for the first, 103 to 104 °C for the second.

Compared with `O=C1CCc2ccc(O)c(c2)Oc2ccc(cc2)C2OC2CO1` (centres undefined), `CCCCC(=O)c1c(-c2ccc3cc(OCC(=O)O)ccc3c2)oc2ccccc12` is lower in melting point: 180 to 181 °C for the first, 130 to 132 °C for the second.

Compared with `Nc1ccc2oc3c(c2c1)CCCCCC3`, `COC(=O)c1cc(N(C)C)c(N2CCCCC2)c(N(C)C)c1` is higher in melting point: 97 to 98 °C for the first, 103 to 105 °C for the second.

First: C=CCc1cc(OC)c(OC)cc1Cc1cnc(N)nc1N
Second: COc1ccc(Nc2nc(Nc3cc4c(cc3OC)CNC(CC3CC3)C(=O)N4C)ncc2Cl)c(-n2cccn2)c1 (centres undefined)
The melting point of the first is higher: 170 to 171 °C for the first, 94 to 96 °C for the second.

First: NCCc1c[nH]c(=O)[nH]c1=O
Second: CN1CC(=O)Nc2cccc(Cl)c2C1=O
The melting point of the first is lower: 214 to 220 °C for the first, 230 to 232 °C for the second.

Compared with `Cc1nc(NCc2ccccn2)n(C)c(=O)c1CCO`, `Cc1cc(Nc2cccc(O)c2)c2c(cnn2C)n1` is higher in melting point: 245 °C for the first, 264 to 265 °C for the second.

Compared with `Cc1cc(OCC(=O)c2ccc(C(C)C)cc2)c(C)c(C)c1Br`, `Cc1cc(-c2[nH]c3ccc(C#N)cc3c2C)cc(C)c1O` is higher in melting point: 71 to 72 °C for the first, 185 to 186 °C for the second.

First: CSc1cc(C)nc(SC)c1NC(=O)CCCBr
Second: Cc1cc(C(N)=O)ncc1C(c1c(F)ccc(F)c1F)S(=O)(=O)CC1CC1 (centres undefined)
The melting point of the first is lower: 139 to 140 °C for the first, 222 to 223 °C for the second.

First: CC(C)OC(=O)c1cc(-c2nn(C)c(C(F)(F)F)c2Cl)c(F)cc1Cl
Second: CC(=O)OCCn1nc(-c2cc(C(C)(C)C)c(O)c(C(C)(C)C)c2)c2ccc(C(C)C)nc21
The melting point of the first is lower: 69 °C for the first, 121 to 122 °C for the second.

Compared with `CC(C)[C@H](NC(=O)OCc1ccccc1)C(=O)N[C@@H](Cc1ccccc1)[C@@H](O)[C@@H](O)[C@H](Cc1ccccc1)NC(=O)[C@@H](NC(=O)N1CCN(C)CC1)C(C)C`, `CCCn1c(-c2ccc(-n3ccnc3)cc2)cnc1[C@H](Cc1ccccn1)N(C=O)c1cc2cc(Br)ccc2o1` is lower in melting point: 216 to 219 °C for the first, 93 to 99 °C for the second.

First: Cc1ccccc1-c1cc(C(C)(C)C)c(O)c(C(C)(C)C)c1
Second: CC(C)(C)c1cc(=S)cc(C(C)(C)C)o1
The melting point of the first is lower: 85.5 to 87.5 °C for the first, 108 °C for the second.

First: CC(C)c1ccc(CCC(O)(P(=O)(O)O)P(=O)(O)O)cc1
Second: Cn1c(COc2cccc(C(=O)O)c2)nc2ccc(Oc3cccnc3)cc21
The melting point of the first is lower: 174 °C for the first, 240 to 245 °C for the second.

With `COc1ccc(-c2ccc(-n3nnnc3C(F)(F)F)cc2)cc1C=O` the melting point was 186 to 187 °C.
